Source: US20110015410A1, “NOVEL USE OF SCOPARONE” (Kyungpook National University Industry Academic Cooperation …, priority 2007, published 2011)

How the values were obtained:
[1] = tested on: vascular smooth muscle cells; test: Proliferation of vascular smooth muscle cells on treatment with the AMPK inhibitor CompC; type: cell-based, Sprague-Dawley white rats; details: cells treated with CompC, described as an AMPK inhibitor
[2] = tested on: neointima formation in carotid artery; test: Formation of neointima after balloon dilatation (carotid artery, H&E staining); type: in vivo, Sprague-Dawley white rats; details: high-fat diet containing 10 mg/kg or 100 mg/kg of scoparone; 2 weeks after balloon dilatation; vs negative control group
Protocol: In order to examine whether scoparone inhibits the formation of neointima after balloon dilatation, an experiment was performed using Sprague-Dawley white rats fed with scoparone-containing feed.
As test subjects, male Sprague-Dawley white rats weighing about 300 g were used. The rats were grouped into a normal control group, a negative control group fed only with a high-fat diet (20% fat and 0.05% cholesterol) and a test group fed with a high-fat diet containing 10 mg/kg or 100 mg/kg of scoparone, each group consisting of 4 animals, and were kept at 22° C. under a 12-hr light/12-hr dark cycle. The negative control group and the test group were fed with the above-described diets from 3 days before performing balloon dilatation and were fed with the diets during 2 weeks after balloon dilatation. After 2 weeks, the carotid artery was isolated from the rats and stained with H&E (hematoxylin & eosin) in order to observe the formation of neointima. FIG. 2 is a micrograph (×100) showing the cross-section of the carotid artery of the rats 2 weeks after balloon dilatation.

[3] = high-cholesterol rabbit model; cited from earlier work
ROS = ROS production in vascular smooth muscle cells (DCF-DA fluorescence microscopy); type: cell-based, Sprague-Dawley white rats; details: TNF-α-containing media, scoparone 100 μM and 200 μM, 1 hour
Protocol: When vascular smooth muscle cells were grown to a confluence of about 90% in a 6-well cell culture dish, the cells were cultured in 0.5% FBS DMEM medium for 24 hours. The cultured cells were divided into a control group treated with neither tumor necrosis factor (TNF-α nor scoparone, and three test groups which were treated with scoparone in tumor necrosis factor (TNF-α)-containing media at scoparone concentrations of 0 μM, 100 μM and 200 μM, respectively. The cells of each group were incubated for 1 hour, and then 40 μmol/L of 2′,7′-dichlorofluorecin diacetate (DCF-DA; Invitrogen), a fluorescent probe sensitive to ROS, was added thereto, and the cells were incubated for 30 minutes. The production of ROS in the cells was analyzed using an AxioCam MRc5 Carl Zeiss fluorescence microscope (Thornwood, N.Y.) which was excited at a 488-nm wavelength and emitted at 515-nm wavelength.

JNK = test: Phosphorylation of JNK in vascular smooth muscle cells (Western blot); type: cell-based, Sprague-Dawley white rats; details: 50 μg of scoparone for 15, 30, 45, 60 and 90 min
Protocol: (§1) In order to examine the signaling pathway of scoparone, the phosphorylation of JNK and Erk was examined.
(§2) Cultured vascular smooth muscle cells were plated in a 60-mm tissue culture dish at a confluence of 80-90%, and then cultured in 0.5% FBS-containing medium for 24 hours to allow the cells to enter the stationary phase. The cultured cells were divided into a control group not treated with scoparone, and five test groups which were treated with 50 μg of scoparone for 15 min, 30 min, 45 min, 60 min and 90 min, respectively. From each of the groups, the total protein was isolated using RIPA buffer. Each of the isolated total proteins was boiled in buffer for 5 minutes, and then cooled on ice. Then, each total protein was separated according to size by electrophoresis on sodium dodecyl sulfate polyacrylamide gel. Then, each total protein was transferred to a PVDF membrane which was then allowed to react with antibodies for pJNK, JNK, pErk and Erk to examine the expression and phosphorylation of the proteins.

ACC = test: Phosphorylation of ACC in vascular smooth muscle cells (Western blot); type: cell-based, Sprague-Dawley white rats; details: 50 μg of scoparone for 1, 2, 4, 6 and 12 hr
Protocol: (§3) Cultured vascular smooth muscle cells were plated in a 60-mm tissue culture dish at a confluence of about 80-90%, and then cultured in 0.5% FBS-containing medium for 24 hours to allow the cells to enter the stationary phase. The cultured cells were divided into a control group not treated with scoparone, and five test groups which were treated with 50 μg of scoparone for 1 hr, 2 hr, 4 hr, 6 hr and 12 hr, respectively. From each of the groups, the total protein was isolated using RIPA buffer. Each of the isolated total proteins was boiled in buffer for 5 minutes, and then cooled on ice. Then, each total protein was separated according to size by electrophoresis on sodium dodecyl sulfate polyacrylamide. Then, each total protein was transferred to a PVDF membrane which was then allowed to react with monoclonal antibodies for pACC, pAMPK and AMPK to examine the expression and phosphorylation of the proteins.

Erk = test: Phosphorylation of Erk in vascular smooth muscle cells (Western blot); type: cell-based, Sprague-Dawley white rats; details: 50 μg of scoparone for 15, 30, 45, 60 and 90 min
Protocol: as §1, §2

NF-κB = test: DNA-binding activity of NF-κB (electrophoretic mobility shift assay); type: cell-based, Sprague-Dawley white rats; details: 10 ng TNF-α; scoparone 0, 10, 20, 50 and 100 μM; 24 hours; EMSA
Protocol: (§4) Proteins such as cell cycle regulatory proteins or chemokine are regulated by the respective transcription factors. Accordingly, the DNA-binding activities of AP-1 that is a transcription factor regulating the expression of cell cycle regulatory proteins, and NF-κB that is a transcription factor regulating the expression of chemokine were analyzed using an electrophoretic mobility shift assay (EMSA).
(§5) Vascular smooth muscle cells were cultured in 0.5% FBS-containing medium for 24 hours. The cultured cells were divided into a control group treated with neither scoparone nor tumor necrosis factor (TNF-α, and five test groups which were treated with media containing 10 ng of tumor necrosis factor (TNF-α) for 24 hours at scoparone concentrations of 0 μM, 10 μM, 20 μM, 50 μM and 100 μM, respectively. Nuclear extracts were isolated from the vascular smooth muscle cells and labeled with radioisotope-labeled probes for AP-1 and NF-κB. Then, the labeled extracts were subjected to a protein-DNA reaction at room temperature for 20 minutes. After completion of the reaction, each sample was loaded on a 4% native polyarylamide gel and electrophoresed at 150 volt for 2 hours, followed by analysis.

p21 = test: Expression of p21 in vascular smooth muscle cells (Western blot); type: cell-based, Sprague-Dawley white rats
Protocol: (§6) Cultured vascular muscle cells were plated in a 60-mm tissue culture dish at a confluence of about 80-90%, and then cultured in 0.5% FBS containing medium for 24 hours to allow the cells to enter the stationary phase. The cultured cells were divided into a control group not treated with scoparone, and five test groups which were treated with 50 μg of scoparone for 2 hr, 4 hr, 6 hr, 12 hr and 24 hr, respectively. From each of the groups, the total protein was isolated using RIPA buffer. Each of the isolated total proteins was boiled in buffer for 5 minutes, and then cooled on ice. Then, each total protein was separated according to size by electrophoresis on sodium dodecyl sulfate polyacrylamide gel. Then, each total protein was transferred to a PVDF membrane which was then allowed to react with antibodies for p53, p27, p21 and Cyclin D to examine the expression of the proteins.

p27 = test: Expression of p27 in vascular smooth muscle cells (Western blot); type: cell-based, Sprague-Dawley white rats
Protocol: as §6

AMPK = test: Phosphorylation of AMPK in vascular smooth muscle cells (Western blot); type: cell-based, Sprague-Dawley white rats; details: 50 μg of scoparone for 1, 2, 4, 6 and 12 hr
Protocol: as §3

p53 = test: Expression of p53 in vascular smooth muscle cells (Western blot); type: cell-based, Sprague-Dawley white rats
Protocol: as §6

VCAM-1 = test: Expression of VCAM-1 in vascular smooth muscle cells (Western blot); type: cell-based, Sprague-Dawley white rats; details: TNF-α-containing media; scoparone 0, 10, 20, 50 and 100 μM; 24 hours
Protocol: Cultured vascular smooth muscle cells were plated in a 60-mm tissue culture dish at a confluence of about 80-90%, and then cultured in 0.5% FBS-containing medium for 24 hours to allow the cells to enter the stationary phase. The cultured cells were divided into a control group treated with neither scoparone nor tumor necrosis factor (TNF-α, and five test groups which were treated with scoparone in tumor necrosis factor (TNF-α)-containing media for 24 hours at scoparone concentrations of 0 μM, 10 μM, 20 μM, 50 μM and 100 μM, respectively. In addition, the cells were divided into five groups which were treated with 50 μg of scoparone for 15 min, 30 min, 45 min, 60 min and 90 min, respectively. From each of the groups, the total protein was isolated using RIPA buffer. Each of the isolated total protein was boiled in buffer for 5 minutes, and then cooled on ice. Then, each total protein was separated according to size by electrophoresis on sodium dodecyl sulfate polyacrylamide gel. Then, each total protein was transferred to a PVDF membrane which was then allowed to react with antibodies for VCAM and PAI-1 to examine the expression of the proteins. The membrane was further allowed to react with anti-actin antibody to examine whether the antibody uses a given amount of the proteins.

[4] = tested on: vascular smooth muscle cells; test: Inhibition of proliferation of vascular smooth muscle cells (WST cell counting); type: cell-based, Sprague-Dawley white rats; details: scoparone 0, 5, 10, 20 or 50 μM, 48 hours, absorbance at 450 nm
Protocol: Vascular smooth muscle cells were isolated from the thoracic aorta of Sprague-Dawley white rats and cultured in a medium containing 20% fetal bovine serum.
The specificity of vascular smooth muscle cells was confirmed by staining the cells with α-actin monoclonal antibody (Sigma, St Louis, Mo., USA). In this experiment, vascular smooth muscle cells subcultured 5-6 times were used. The cultured vascular smooth muscle cells were plated in a 60-mm tissue culture dish at a confluence of about 80-90%, and then cultured in 0.5% FBS DMEM medium for 24 hours to allow the cells to enter the stationary phase.
The primarily cultured vascular smooth muscle cells were cultured in a 96-well culture dish, and when the cells reached a confluence of 40%, the medium was replaced with 0.5% FBS-containing medium, and the cells were cultured for 24 hours to allow the cells to enter the stationary phase.

cyclin D = test: Expression of cyclin D in vascular smooth muscle cells (Western blot); type: cell-based, Sprague-Dawley white rats; details: 50 μg of scoparone for 2, 4, 6, 12 and 24 hr
Protocol: as §6

AP-1 = test: DNA-binding activity of AP-1 (electrophoretic mobility shift assay); type: cell-based, Sprague-Dawley white rats; details: 10 ng TNF-α; scoparone 0, 10, 20, 50 and 100 μM; 24 hours; EMSA
Protocol: as §4, §5

[5] = tested on: human peripheral monocytes; details: cited from earlier work
[6] = 50 μg of scoparone for 2, 4, 6, 12 and 24 hr

## c1cc(-c2cnn3cc(-c4ccc(OCCN5CCCCC5)cc4)cnc23)ccn1 [CompC]
[1]
  proliferation of the vascular smooth muscle cells: restored again

## COc1cc2ccc(=O)oc2cc1OC [scoparone, 6,7-dimethoxycoumarin]
[2]
  formation of neointima: decreased compared to that in the negative control group
[3]
  cholesterol levels: lowered
  triglyceride levels: lowered
ROS
  expression of ROS: decreased
JNK
  phosphorylation of JNK: gradually increased with the passage of time
ACC
  phosphorylation of ACC: time-dependently increased
Erk
  time of highest phosphorylation of Erk after treatment: 45 min
NF-κB
  DNA binding activity of NF-κB: concentration-dependently decreased
p21; 50 μg of scoparone
  time of highest expression level of p21 after treatment: 24 h
p21; [6]
  expression of p21: time-dependently increased
p27; 50 μg of scoparone
  time of highest expression level of p27 after treatment: 24 h
p27; [6]
  expression of p27: time-dependently increased
AMPK
  phosphorylation of AMPK: time-dependently increased
p53; 50 μg of scoparone
  time of highest expression level of p53 after treatment: 2 to 4 h
p53; [6]
  expression of p53: time-dependently increased
VCAM-1
  expression of VCAM-1: dose-dependently decreased
[4]; with 10 ng/ml TNF-α
  proliferation of the vascular smooth muscle cells: decreased in a dose-dependent manner
[4]; with 20 ng/ml PDGF
  proliferation of the vascular smooth muscle cells: decreased in a dose-dependent manner
Cyclin D
  expression level of cyclin D: decreased
AP-1
  DNA binding activity of AP-1: concentration-dependently decreased
[5]
  growth of human peripheral monocytes: inhibits
